PubChem BioAssay AID1963985 (Molecular Pharmacology Branch, DTP, NCI, 2024)

System: 252836-082-R-J2-PDC tumor spheroids, viability
Assay: Anticancer human tumor 252836-082-R-J2-PDC patient-derived head and neck squamous cell carcinoma cell line growth inhibition [PI3K]
Conditions: spheroids with HUVEC and MSC; for viability, T/C: stronger effect = lower value
Description: Combinatorial screen of targeted agents with the PI3K inhibitors inavolisib, alpelisib, duvelisib, and copanlisib in multi-cell type tumor spheroids
A high-throughput screen of multi-cell type tumor spheroids was designed to identify active combinations of targeted small molecules and PI3K pathway inhibitors. Complex spheroids include a stromal component modeled by human endothelial cells (HUVEC) and fibroblasts modeled by human mesenchymal stem cells (MSCs). The concentration ranges selected for each drug and investigational agent were based upon clinically achievable concentrations if the clinical Cmax of the agent was known.
Compounds. The drugs and investigational agents: inavolisib (NSC800729), alpelisib (NSC765974), duvelisib (NSC772469), copanlisib (NSC816437), ipatasertib (NSC767898), afuresertib (NSC778305), talazoparib (NSC767125), sapanisertib (NSC764658), selumetinib (NSC741078), tovorafenib (DAY101, NSC766906), vemurafenib (NSC761431), ravoxertinib (NSC781343), sotorasib (NSC818433), MRTX1133 (NSC 836407), abemaciclib (NSC 768073), palbociclib (NSC758247), venetoclax (NSC 766270), SY5609 (NSC837396), enzalutamide (NSC755605), and darolutamide (NSC825331), were obtained from the National Cancer Institute (NCI) Developmental Therapeutics Program Chemical Repository. The FDA-approved anticancer drug set is available from the NCI Developmental Therapeutics Program. […] The stock solutions were prepared in dimethyl sulfoxide (DMSO, Sigma-Aldrich, St. Louis, MO, cat. D2650) at 800-fold the tested concentration and stored at -70 degrees C prior to their use. All drugs and investigational agents were tested over a range starting from a high concentration at or near the clinical Cmax and decreasing in half-log increments. If the clinical Cmax for an agent had not been determined, the highest concentration tested was 10 microM.
Cell Culture. All cells were maintained in an incubator at 37 degrees C and 5% CO2 with 95% humidity. The PDC lines were cultured according to standard operating procedures established by the NCI PDMR (https://pdmr.cancer.gov/sops/default.htm). All PDCs were thawed and cultured in Matrigel-coated flasks prepared with a working solution of 1X Ham's F-12 nutrient mix, without supplementation (Invitrogen, Waltham, MA, cat. 11765054), 100 U/mL penicillin-streptomycin (Invitrogen, cat. 15140122), and 2.5% Matrigel (Corning Inc., Corning, NY, cat. 354248) for the first three passages. The 354836-022-R-J1-PDC, 475296-252-R-J1-PDC, and 997726-040-R-J2-PDC lines were cultured in 6A media, which includes advanced DMEM/F-12 (Thermo Fisher Scientific, cat. 12634028), 10 mM HEPES (Thermo Fisher Scientific, cat. 15630080), 1X GlutaMAX supplement (Thermo Fisher Scientific, cat. 35050061), 0.1 mg/mL primocin (InvivoGen, San Diego, CA, cat. ant-pm-2), 10% defined fetal bovine serum, heat inactivated (HyClone Laboratories Inc., Logan, UT, cat. SH30070.03HI), 50% L-WRN conditioned media (ATCC, cat. CRL-3276), 1.25 mM N-Acetyl-L-cysteine (Sigma-Aldrich, cat. A9165), 10 mM nicotinamide (Sigma-Aldrich, cat. N0636), 1X B-27 supplement (Thermo Fisher Scientific, cat. 17504044), 1X N-2 supplement (Thermo Fisher Scientific, cat. 17502048), and 10 microM Y-27632 dihydrochloride (Tocris Bioscience, Bristol, United Kingdom, cat. 1254). The 624824-186-R-J2-PDC line was cultured in 6C/Colon 1B media, which includes all 6A media components plus 50 ng/mL human EGF recombinant protein (Thermo Fisher Scientific, cat. PHG0311). […]
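Note: spheroids exposed to agents for seven days before readout.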
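Throughout, for viability, T/C: percent of vehicle DMSO control viability so 100% = untreated growth.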

## Cn1ncc(Cl)c1-c1cc(C(=O)NC(CN)Cc2cccc(F)c2)sc1Cl (stereo not drawn) + Cc1nc(NC(=O)N2CCCC2C(N)=O)sc1-c1ccnc(C(C)(C)C(F)(F)F)c1
Curve of first compound, second compound 0.0316 µM
  IC50: 391 nM
Curve of first compound, second compound 0.1 µM
  IC50: 657 nM
Curve of first compound, second compound 0.316 µM
  IC50: 362 nM
Curve of first compound, second compound 1 µM
  IC50: 52.2 nM
Curve of first compound, second compound 3.16 µM
  IC50: < 31.6 nM
Curve of first compound, second compound 10 µM
  IC50: < 31.6 nM
Second compound 0.0316 µM, first compound 0.0316 µM
  viability, T/C: 82.8%
Second compound 0.0316 µM, first compound 0.1 µM
  viability, T/C: 65%
Second compound 0.0316 µM, first compound 0.316 µM
  viability, T/C: 57.8%
Second compound 0.0316 µM, first compound 1 µM
  viability, T/C: 33.6%
Second compound 0.0316 µM, first compound 3.16 µM
  viability, T/C: 28.4%
Second compound 0.0316 µM, first compound 10 µM
  viability, T/C: 17.6%
Second compound 0.1 µM, first compound 0.0316 µM
  viability, T/C: 83.9%
Second compound 0.1 µM, first compound 0.1 µM
  viability, T/C: 64%
Second compound 0.1 µM, first compound 0.316 µM
  viability, T/C: 67.5%
Second compound 0.1 µM, first compound 1 µM
  viability, T/C: 41.8%
Second compound 0.1 µM, first compound 3.16 µM
  viability, T/C: 27.4%
Second compound 0.1 µM, first compound 10 µM
  viability, T/C: 12.2%
Second compound 0.316 µM, first compound 0.0316 µM
  viability, T/C: 67.4%
Second compound 0.316 µM, first compound 0.1 µM
  viability, T/C: 61.3%
Second compound 0.316 µM, first compound 0.316 µM
  viability, T/C: 52.4%
Second compound 0.316 µM, first compound 1 µM
  viability, T/C: 36.9%
Second compound 0.316 µM, first compound 3.16 µM
  viability, T/C: 29.5%
Second compound 0.316 µM, first compound 10 µM
  viability, T/C: 11.1%
Second compound 1 µM, first compound 0.0316 µM
  viability, T/C: 52%
Second compound 1 µM, first compound 0.1 µM
  viability, T/C: 47.4%
Second compound 1 µM, first compound 0.316 µM
  viability, T/C: 44.6%
Second compound 1 µM, first compound 1 µM
  viability, T/C: 35.8%
Second compound 1 µM, first compound 3.16 µM
  viability, T/C: 28.6%
Second compound 1 µM, first compound 10 µM
  viability, T/C: 12%
Second compound 3.16 µM, first compound 0.0316 µM
  viability, T/C: 44.5%
Second compound 3.16 µM, first compound 0.1 µM
  viability, T/C: 42.1%
Second compound 3.16 µM, first compound 0.316 µM
  viability, T/C: 43.6%
Second compound 3.16 µM, first compound 1 µM
  viability, T/C: 30.7%
Second compound 3.16 µM, first compound 3.16 µM
  viability, T/C: 25.4%
Second compound 3.16 µM, first compound 10 µM
  viability, T/C: 9.67%
Second compound 10 µM, first compound 0.0316 µM
  viability, T/C: 40.4%
Second compound 10 µM, first compound 0.1 µM
  viability, T/C: 36.1%
Second compound 10 µM, first compound 0.316 µM
  viability, T/C: 34.1%
Second compound 10 µM, first compound 1 µM
  viability, T/C: 26.1%
Second compound 10 µM, first compound 3.16 µM
  viability, T/C: 20.9%
Second compound 10 µM, first compound 10 µM
  viability, T/C: 7.53%

## CC(Nc1ncnc2nc[nH]c12)c1cc2cccc(Cl)c2c(=O)n1-c1ccccc1 (stereo not drawn)
Compound 0.0316 µM
  viability, T/C: 96.2% [middle of 8 runs]
Compound 0.1 µM
  viability, T/C: 95.5% [middle of 8 runs]
Compound 0.316 µM
  viability, T/C: 97.4% [middle of 8 runs]
Compound 3.16 µM
  viability, T/C: 78.1% [middle of 8 runs]
Compound 10 µM
  viability, T/C: 64.3% [middle of 8 runs]
Compound alone, run of 06/13/2023
  IC50: > 10000 nM
